Laboratory results reported in paper PMC7737769, “Pharmacological inhibition of syntenin PDZ2 domain impairs breast cancer cell activities and exosome loading with syndecan and EpCAM cargo” (Journal of Extracellular Vesicles, 2020).
pIC50, pKd: −log10 of the molar value. “And” between values parts separate entries of the source, which are not always exact repeats. Equal values may be shown once. Read-outs that look alike come from different tables or passages of the source.

Legend:
[1] = system: MCF‐7 cells; assay: Mammosphere formation assay, MCF-7; assay type: cell-based; conditions: wild-type MCF-7, 50 & 100 µM
Protocol: MCF‐7 and MCF‐7 SyntKO cells were treated with increasing concentrations of compounds C58, SyntOFF (50‐100µM) or DMSO 0.2% as control. After 24 h, cells were trypsinized, re‐suspended in normal growth media and washed three times in PBS to remove serum. Cell concentration was determined using the LUNA-FL Automated Fluorescence Cell Counter (Logos Biosystem) and cells were then seeded at 1000 cells/ml in 6‐well Ultra low Adherence plates (Corning Inc., Corning, NY) in MEBM medium (Lonza) supplemented with 5 µg/ml insulin (Sigma‐Aldrich), 20 ng/ml recombinant epidermal growth factor (Sigma‐Aldrich), 1X of B27 supplement (Invitrogen, Carlsbad, CA, USA), 0.5 µg/ml hydrocortisone (Sigma‐Aldrich), 1X of β‐mercaptoethanol and 1% penicillin/streptomycin (Gibco). Fresh medium was added into the plates every 3–4 days. The number of spheres (diameter > 50 µm) was evaluated under microscope on days 7–10. Sphere formation was calculated as the number of spheres divided by the original number of cells seeded and normalized to control.

[2] = biological target: T1, syntenin‐PDZ tandem plus C‐terminal domain (Homo sapiens, UniProt O00560); assay: Surface plasmon resonance (BIAcore), syntenin PDZ tandem plus C-terminal domain; assay type: binding
T1 construct: made in house; host or cells: Biotin XCell F' E. coli cells
T1 sequence (O00560 107-298): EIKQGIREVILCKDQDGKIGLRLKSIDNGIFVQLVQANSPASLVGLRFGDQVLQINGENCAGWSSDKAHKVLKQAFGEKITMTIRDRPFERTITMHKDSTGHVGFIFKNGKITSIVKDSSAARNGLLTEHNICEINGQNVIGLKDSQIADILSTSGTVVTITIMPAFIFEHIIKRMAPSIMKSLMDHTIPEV
Protocol: All SPR experiments were conducted with a BIAcore T200 instrument (GE Healthcare), at 25°C. A total of 8000 resonance units (RU) of biotinylated ligands (N‐terminal 6xHis tagged biotinylated syntenin tandem, syntenin tandem with C terminus, GRASP55 tandem or GST as control) were immobilized on a streptavidin‐sensor chip (GE Healthcare). Analytes (C58 and SyntOFF compounds) were perfused at 30 µl per min in running buffer (10 mM HEPES pH 7.4, 150 mM NaCl, 0.005% Tween20) at different concentrations. The reference channel was N‐terminal 6xHis tagged biotinylated GST protein. The injection time was 240 s, long enough for the sensorgrams to reach equilibrium, and the dissociation time was 240 s. To carry out these SPR experiments, we employed the method known as ‘single‐cycle kinetics’ described in 2006 by Karlsson and co‐workers (Karlsson, Katsamba, Nordin, Pol, & Myszka, 2006). It consists in injecting the analyte at increasing concentrations, without regeneration steps between each sample injection to avoid that folded‐proteins can be damaged after regeneration steps. Equilibrium dissociation constants (KD) were calculated by fitting the data to a simple Langmuir binding isotherm using GraphPad Prism. For determination of the apparent KD, signals obtained at equilibrium were plotted as a function of compound concentration. […]

[3] = biological target: T2, syntenin‐SDC2 complex (GST-SyntFL / SDC2 peptide) (Homo sapiens, UniProt O00560); assay: HTRF assay, syntenin-SDC2 interaction; assay type: biochemical; conditions: for pIC50: HTRF dose-response, read-out: IC50 for syntenin‐SDC2 complexes; for inhibition at 400 µM: HTRF
T2 construct: residues 1–298 or syntenin full‐length (FL) for HTRF assays; made in house; host or cells: E. coli ER2566
T2 sequence (O00560 1-298): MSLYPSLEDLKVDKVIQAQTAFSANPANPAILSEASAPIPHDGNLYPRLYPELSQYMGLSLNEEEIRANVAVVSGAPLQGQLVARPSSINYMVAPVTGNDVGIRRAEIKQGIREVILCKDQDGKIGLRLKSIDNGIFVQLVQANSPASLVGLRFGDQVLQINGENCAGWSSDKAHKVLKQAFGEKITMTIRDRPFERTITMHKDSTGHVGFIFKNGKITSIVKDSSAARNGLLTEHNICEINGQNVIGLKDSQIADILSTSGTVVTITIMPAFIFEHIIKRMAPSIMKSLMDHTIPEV

CC(C)[C@H](NC(=O)CSc1ccc(Cl)cc1)C(=O)O [Compound C58]
mammosphere formation [1]: decreases
pKd ([2]; compound in PBS, read-out: apparent KD, syntenin‐PDZ tandem plus C‐terminal domain): 3.05
ligand efficiency [3]: 0.24 kcal/mol/atom
GST SyntFL Syndecan 2 (signal ratio) ([3]; 400µM compound, Figure 1c): 0.36
pIC50 [3]: 3.46
inhibition of syntenin PDZ interactions ([3]; HTRF primary screen, 400µM, syntenin-SDC2 and syntenin-Frizzled7): inhibit
inhibition at 400 µM ([3]; syntenin-SDC2 and syntenin-Frizzled 7 complexes, read-out: extent of inhibition of Syntenin‐PDZ complexes): 60%

CC(C)[C@H](NC(=O)CCSc1ccc(Cl)cc1)C(=O)O [SyntOFF, (S)‐2‐(3‐(4‐chlorophenylthio)propanamido)‐3‐methylbutanoic acid]
mammosphere formation [1]: decreases
pKd ([2]; DMSO as vehicle, read-out: KD, syntenin‐PDZ tandem plus C‐terminal domain): 3.89
ligand efficiency [3]: 0.30 kcal/mol/atom
fold improvement of the affinity as compared to C58 ([3]; HTRF IC50): > 10 fold and 10 fold
pIC50 [3]: 4.43
inhibition at 400 µM ([3]; read-out: inhibition of the syntenin‐SDC2 interaction): 96%
